Source: ChEMBL document CHEMBL1268864, “Dolabranes from the Chinese Mangrove, Ceriops tagal” (2010)
The source made the active and inactive calls. No cut-off for these calls is given here.

Legend:
[1] = test system: MDA-MB-468; assay: Cytotoxicity against human MDA-MB-468 cells by MTT assay; format: functional, cell-based
[2] = test system: G-361; assay: Cytotoxicity against human G361 cells by MTT assay; format: functional, cell-based
[3] = test system: A2058; assay: Cytotoxicity against human A2058 cells by MTT assay; format: functional, cell-based
[4] = test system: Brontispa longissima; assay: Antifeedant activity against third-instar larvae of Brontispa longissima at 0.5 mg/ml after 48 hrs by leaf disk method; format: functional
[5] = test system: MDA-MB-435; assay: Cytotoxicity against human MDA-MB-435 cells by MTT assay; format: functional, cell-based
[6] = test system: DU-145; assay: Cytotoxicity against human DU145 cells by MTT assay; format: functional, cell-based
[7] = test system: Brontispa longissima; assay: Antifeedant activity against third-instar larvae of Brontispa longissima at 1 mg/ml after 48 hrs by leaf disk method; format: functional
[8] = test system: Brontispa longissima; assay: Antifeedant activity against third-instar larvae of Brontispa longissima at 0.1 mg/ml after 48 hrs by leaf disk method; format: functional
[9] = test system: Brontispa longissima; assay: Antifeedant activity against third-instar larvae of Brontispa longissima at 1 mg/ml after 24 hrs by leaf disk method; format: functional
[10] = test system: Brontispa longissima; assay: Antifeedant activity against third-instar larvae of Brontispa longissima at 0.1 mg/ml after 24 hrs by leaf disk method; format: functional
[11] = test system: Brontispa longissima; assay: Antifeedant activity against third-instar larvae of Brontispa longissima at 0.5 mg/ml after 24 hrs by leaf disk method; format: functional

| Compound | Activity [1] | Activity [2] | Activity [3] | Activity [4] [%] | Activity [5] | Activity [6] | Activity [7] [%] | Activity [8] [%] | Activity [9] [%] | Activity [10] [%] | Activity [11] [%] |
| --- | --- | --- | --- | --- | --- | --- | --- | --- | --- | --- | --- |
| CC1=C(O)C(=O)C[C@@H]2[C@@]3(C)CC[C@](C)(O)C[C@@H]3CC[C@]12C [TAGALSIN P] | inactive | inactive | inactive | 6 | inactive | inactive | 22 | 2 | 48 | 14 | 18 |
| C=C1C(=O)C=C[C@@H]2[C@@]3(C)CC[C@](C)(O)C[C@@H]3CC[C@]12C [TAGALSIN Q] | inactive | inactive | inactive | 36 | inactive | inactive | 43 | 30 | 53 | 23 | 50 |
| C[C@]1(C(=O)O)CC[C@@]2(C)[C@@H](CC[C@]3(C)/C(=C/O)C(=O)CC[C@H]23)C1 [TAGALSIN R] | inactive | inactive | inactive | 30 | inactive | inactive | 28 | 7 | 40 | 18 | 37 |
| C[C@]1(C(=O)CO)CC[C@@]2(C)[C@@H](CC[C@]3(C)/C(=C/O)C(=O)CC[C@H]23)C1 [TAGALSIN S] | inactive | inactive | inactive | 37 | inactive | inactive | 47 | 36 | 51 | 25 | 45 |
| C[C@]1(C(O)CO)CC[C@@]2(C)[C@@H](CC[C@]3(C)/C(=C/O)C(=O)CC[C@H]23)C1 (stereo partly specified) [TAGALSIN T] | inactive | inactive | inactive | -31 | inactive | inactive | -20 | -48 | -5 | -32 | -11 |
| C=C1C(=O)CC[C@@H]2[C@@]3(C)CC[C@](C)(C(O)CO)C[C@@H]3CC[C@]12C (stereo partly specified) [TAGALSIN U] | inactive | inactive | inactive | 31 | inactive | inactive | 41 | 10 | 52 | 14 | 41 |
